Source: patent publication US20240294464A1, “SYNTHESIS OF RESTRAINED COMPLEXING AGENTS” (Genentech, Inc., priority 2021, published 2024)

Test: stability of compound 1 in prep-HPLC fractions
Assay type: physicochemical
Settings: prep-HPLC fractions (0.01% TFA aqueous solution / acetonitrile); needs to freeze immediately for lyophilization
Source text: The crude compound 1 was purified by prep-HPLC (Mobile phase A: 0.01% TFA aqueous solution (v/v); Mobile phase B: Acetonitrile) and the purified product was lyophilized to give compound 1 with 98 A % HPLC purity as a white solid in 51% yield over two steps. (Note: The compound 1 in prep-HPLC fractions is not stable, and it needs to freeze immediately for lyophilization. The residual TFA in solid is 0.1 equiv to E)

- stability in prep-HPLC fractions: not stable
Structure (SMILES): O=C(O)CN(CC(=O)O)[C@@H]1CCCC[C@H]1N(CC(=O)O)Cc1ccc(CC(=O)Oc2c(F)c(F)cc(F)c2F)cc1 [compound 1, 2,2′-(((1R,2R)-2-((carboxymethyl)(4-(2-oxo-2-(2,3,5,6-tetrafluorophenoxy)ethyl)benzyl)amino)cyclohexyl)azanediyl)diacetic acid]
